Values quoted from earlier work in publication PMC9762682, “Tocotrienols: Exciting Biological and Pharmacological Properties of Tocotrienols and Naturally Occurring Compounds, Part II” (Annals of clinical case reports, 2022).
Read-outs that look alike come from different tables or passages of the source. Marks after values point to notes of the source that are not given here.

Columns and labels:
[1] = tested on: Prostate cancer cells; design: method as in PMID 29606130; value at effective dose: scale not given here;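 as to IC50: anti-proliferation of cancer cells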
[2] = tested on: T-cells (Jurkat); design: method as in PMID 29606130
[3] = tested on: TNF-α; settings: LPS-induced macrophages of wild type (C57BL/6) control group
[4] = tested on: people with T2DM
[5] = tested on: plasma TNF-α, IL-2, IL-4, IL-6, IL-8, IL-10; design: method as in earlier work; settings: 250 mg/d + AHA Step-1 diet; baseline = 100
[6] = tested on: hypercholesterolemic subjects
[7] = tested on: Lung cancer cells; design: method as in PMID 29606130; value at effective dose: unit not given here
[8] = tested on: plasma miRNAs; design: method as in ref 14 = [14]; PMID 27493840; doi:10.4172/2155-9880.1000434; 14. Qureshi AA , Khan DA , Saleem S , Silswal N , Trias AM , Tan B , Pharmacokinetics and bioavailability of Annatto δ-tocotrienol in healthy fed subjects . J Clin Exp Cardiol . 2015; 6 : 11 . 10.417; settings: for plasma miR122a / plasma miR-1 / plasma miR-7 / plasma miR-9 / plasma miR-15b / plasma miR-17-5p / plasma miR-19a / plasma miR-19b / plasma miR-24 / plasma miR-26a / plasma miR-34a / plasma miR-106a / plasma miR-107 / plasma miR-132 / plasma miR-143 / plasma miR-145 / plasma miR-148a / plasma miR-181a / plasma miR-182 / plasma miR-192 / plasma miR-194 / plasma miR-196a / plasma miR-199a / plasma miR-204 / plasma miR-205 / plasma miR-222 / plasma miR-342: 0-h = 100
[9] = tested on: Liver cancer cells; design: method as in PMID 29606130; value at effective dose: unit not given here
[10] = design: method as in ref 16 = [16]; PMID 27493840; doi:10.4172/2155-9880.1000434; 16. Qureshi AA , Khan DA , Silswal N , Saleem S , Qureshi N . Evaluation of pharmacokinetics and bioavailability of higher doses of δ-tocotrienol in healthy fed humans . J Clin Exp Cardiol . 2016; 7
[11] = serum, two capsules/d for 24-weeks
[12] = δ-tocotrienol treatment, pharmacokinetic study
[13] = plasma tocol after single dose 750 mg δ-tocotrienol
[14] = plasma tocol after single dose 750 mg δ-tocotrienol, listed as δ-tocotrienol
[15] = plasma tocol after single dose 1000 mg δ-tocotrienol
[16] = plasma tocol after single dose 1000 mg δ-tocotrienol, listed as δ-tocotrienol

CC(C)=CCC/C(C)=C/CC/C(C)=C/CC[C@]1(C)CCc2cc(O)cc(C)c2O1 [δ-Tocotrienol]
IC50 [1]: 10 µM | percentage of control at IC50 dose [1]: 39% | effective dose ([1]; 48 h): 20 µM | percentage of control at effective dose ([1]; 48 h): 35% | value at effective dose ([1]; 48 h): 12.3 ± 1.5 | IC50 [2]: 20 µM | percentage of control at IC50 dose [2]: 32% | effect on secretion of TNF-α [3]: inhibition | Fasting Glucose, Post-dose, percentage of control (pre-dose) in parentheses [4, 11]: 93% | MDA, Post-dose [4, 11]: 3.22 µmol/L | MDA, Post-dose, percentage of control (pre-dose) in parentheses [4, 11]: 89% | hs-CRP, Post-dose [4, 11]: 3.10 mg/L | hs-CRP, Post-dose, percentage of control (pre-dose) in parentheses [4, 11]: 88% | Fasting Glucose, Post-dose ([4]; serum, two capsules/d for 24-weeks (δ-tocotrienol 250 mg, vitamin D3 5000 IU, resveratrol 250 mg per capsule)): 6.85 mmol/L | Fasting HbA1c, Post-dose ([4]; two capsules/d for 24-weeks): 7.79% | Fasting HbA1c, Post-dose, percentage of control (pre-dose) in parentheses ([4]; two capsules/d for 24-weeks): 92% | HOMA-IR, Post-dose ([4]; two capsules/d for 24-weeks): 4.51 | HOMA-IR, Post-dose, percentage of control (pre-dose) in parentheses ([4]; two capsules/d for 24-weeks): 86% | plasma IL-2 [5]: 55.5 ± 0.71 | plasma IL-4 [5]: 49.0 ± 1.41 | plasma IL-6 [5]: 38.5 ± 2.21 | plasma IL-8 [5]: 43.5 ± 0.71 | plasma IL-10 [5]: 63.5 ± 2.12 | plasma TNF-α [5]: 48.5 ± 0.7 | reduction of LDL-cholesterol (maximum effect) ([6]; 250 mg/d + AHA Step-1 diet): 18% | reduction of total cholesterol (maximum effect) ([6]; 250 mg/d + AHA Step-1 diet): 15% | reduction of triglycerides (maximum effect) ([6]; 250 mg/d + AHA Step-1 diet): 14% | effect on HDL-cholesterol ([6]; 125-750 mg/d + AHA Step-1 diet): without affecting | levels of lipid parameters ([6]; above 500 mg/d dose + AHA Step-1 diet): induction | IC50 [7]: 20 µM | effective dose [7]: 20 µM | percentage of control at IC50 dose [7]: 11% | percentage of control at effective dose [7]: 11% | value at effective dose [7]: 8.3 ± 2.1 | plasma miR122a ([8]; 3-h, 125 mg δ-tocotrienol): 166% | plasma miR-1 ([8]; 3-h, 125 mg δ-tocotrienol): 78% | plasma miR-7 ([8]; 3-h, 125 mg δ-tocotrienol): 94% | plasma miR-9 ([8]; 3-h, 125 mg δ-tocotrienol): 88% | plasma miR-15b ([8]; 3-h, 125 mg δ-tocotrienol): 110% | plasma miR-17-5p ([8]; 3-h, 125 mg δ-tocotrienol): 106% | plasma miR-19a ([8]; 3-h, 125 mg δ-tocotrienol): 95% | plasma miR-19b ([8]; 3-h, 125 mg δ-tocotrienol): 91% | plasma miR-24 ([8]; 3-h, 125 mg δ-tocotrienol): 77% | plasma miR-26a ([8]; 3-h, 125 mg δ-tocotrienol): 80% | plasma miR-34a ([8]; 3-h, 125 mg δ-tocotrienol): 72% | plasma miR-106a ([8]; 3-h, 125 mg δ-tocotrienol): 74% | plasma miR-107 ([8]; 3-h, 125 mg δ-tocotrienol): 156% | plasma miR-132 ([8]; 3-h, 125 mg δ-tocotrienol): 199% | plasma miR-143 ([8]; 3-h, 125 mg δ-tocotrienol): 63% | plasma miR-145 ([8]; 3-h, 125 mg δ-tocotrienol): 54% | plasma miR-148a ([8]; 3-h, 125 mg δ-tocotrienol): 208% | plasma miR-181a ([8]; 3-h, 125 mg δ-tocotrienol): 48% | plasma miR-182 ([8]; 3-h, 125 mg δ-tocotrienol): 76% | plasma miR-192 ([8]; 3-h, 125 mg δ-tocotrienol): 28% | plasma miR-194 ([8]; 3-h, 125 mg δ-tocotrienol): 50% | plasma miR-196a ([8]; 3-h, 125 mg δ-tocotrienol): 65% | plasma miR-199a ([8]; 3-h, 125 mg δ-tocotrienol): 81% | plasma miR-204 ([8]; 3-h, 125 mg δ-tocotrienol): 45% | plasma miR-205 ([8]; 3-h, 125 mg δ-tocotrienol): 39% | plasma miR-222 ([8]; 3-h, 125 mg δ-tocotrienol): 55% | plasma miR-342 ([8]; 3-h, 125 mg δ-tocotrienol): 70% | plasma miR122a ([8]; 6-h, 500 mg δ-tocotrienol): 196% | plasma miR-1 ([8]; 6-h, 500 mg δ-tocotrienol): 63% | plasma miR-7 ([8]; 6-h, 500 mg δ-tocotrienol): 85% | plasma miR-9 ([8]; 6-h, 500 mg δ-tocotrienol): 44% | plasma miR-15b ([8]; 6-h, 500 mg δ-tocotrienol): 132% | plasma miR-17-5p ([8]; 6-h, 500 mg δ-tocotrienol): 168% | plasma miR-19a ([8]; 6-h, 500 mg δ-tocotrienol): 36% | plasma miR-19b ([8]; 6-h, 500 mg δ-tocotrienol): 70% | plasma miR-24 ([8]; 6-h, 500 mg δ-tocotrienol): 45% | plasma miR-26a ([8]; 6-h, 500 mg δ-tocotrienol): 62% | plasma miR-34a ([8]; 6-h, 500 mg δ-tocotrienol): 59% | plasma miR-106a ([8]; 6-h, 500 mg δ-tocotrienol): 56% | plasma miR-107 ([8]; 6-h, 500 mg δ-tocotrienol): 173% | plasma miR-132 ([8]; 6-h, 500 mg δ-tocotrienol): 145% | plasma miR-143 ([8]; 6-h, 500 mg δ-tocotrienol): 36% | plasma miR-145 ([8]; 6-h, 500 mg δ-tocotrienol): 44% | plasma miR-148a ([8]; 6-h, 500 mg δ-tocotrienol): 233% | plasma miR-181a ([8]; 6-h, 500 mg δ-tocotrienol): 21% | plasma miR-182 ([8]; 6-h, 500 mg δ-tocotrienol): 64% | plasma miR-192 ([8]; 6-h, 500 mg δ-tocotrienol): 21% | plasma miR-194 ([8]; 6-h, 500 mg δ-tocotrienol): 21% | plasma miR-196a ([8]; 6-h, 500 mg δ-tocotrienol): 43% | plasma miR-199a ([8]; 6-h, 500 mg δ-tocotrienol): 65% | plasma miR-204 ([8]; 6-h, 500 mg δ-tocotrienol): 41% | plasma miR-205 ([8]; 6-h, 500 mg δ-tocotrienol): 45% | plasma miR-222 ([8]; 6-h, 500 mg δ-tocotrienol): 51% | plasma miR-342 ([8]; 6-h, 500 mg δ-tocotrienol): 52% | expression of miR-107, miR-122a, and miR-132 [8, 12]: up-regulated | gene expression of miR-34a [8, 12]: down-regulated | IC50 [9]: 20 µM | percentage of control at IC50 dose [9]: 53% | effective dose ([9]; 48 h): 20 µM | percentage of control at effective dose ([9]; 48 h): 24% | value at effective dose ([9]; 48 h): 17.7 ± 2.1 | plasma tocol level ([10]; 0 Hr., single dose 750 mg δ-tocotrienol): 132 ± 12 ng/mL | plasma tocol level ([10]; 0 Hr., single dose 1000 mg δ-tocotrienol): 360 ± 20 ng/mL | Time of clearance (Cl-T) ([10]; 750 mg/d): 0.086 h⁻¹ | Time of clearance (Cl-T) ([10]; 1000 mg/d): 0.078 h⁻¹ | plasma tocol level ([10]; 1 hr., single dose 750 mg δ-tocotrienol): 310 ± 28 ng/mL | plasma tocol level ([10]; 1 hr., single dose 1000 mg δ-tocotrienol): 993 ± 33 ng/mL | plasma tocol level ([10]; 2 hr., single dose 750 mg δ-tocotrienol): 877 ± 24 ng/mL | plasma tocol level ([10]; 2 hr., single dose 1000 mg δ-tocotrienol): 1593 ± 44 ng/mL | plasma tocol level ([10]; 4 hr., single dose 750 mg δ-tocotrienol): 1444 ± 53 ng/mL | plasma tocol level ([10]; 4 hr., single dose 1000 mg δ-tocotrienol): 884 ± 45 ng/mL | plasma tocol level ([10]; 6 hr., single dose 750 mg δ-tocotrienol): 759 ± 30 ng/mL | plasma tocol level ([10]; 6 hr., single dose 1000 mg δ-tocotrienol): 562 ± 47 ng/mL | plasma tocol level ([10]; 8 hr., single dose 750 mg δ-tocotrienol): 523 ± 13 ng/mL | Area Under the Curve-t0 - t8 (AUC0-8) [10, 13]: 6620.87 ± 49.67^a ^* ng/ml | Area Under the Curve-t0 - ∞ (AUC0-∞) [10, 13]: 8687.69 ± 201.01^a ^* ng/ml | Elimination of Half-life time (t1/2) [10, 13]: 2.74 ± 0.13^a h | Elimination rate constant (ke) [10, 13]: 0.253 ± 0.167^a h-1 | Peak Plasma Concentration (Cmax) [10, 13]: 1444.23 ± 53.07^a ng/ml | Time of clearance (Cl-T) [10, 13]: 0.086 ± 0.002^a I/h | Time to achieve plasma peak (Tmax) [10, 13]: 4.00^a h | Area Under the Curve-t0 - t8 (AUC0-8) [10, 14]: 6620 ng·h/mL | Area Under the Curve-t0 - ∞ (AUC0-∞) [10, 14]: 8690 ng·h/mL | Elimination rate constant (ke) [10, 14]: 0.25 h⁻¹ | Peak Plasma Concentration (Cmax) [10, 14]: 1444 ng/mL | Area Under the Curve-t0 - t8 (AUC0-8) [10, 15]: 7450.10 ± 89.01^a ^* ng/ml | Area Under the Curve-t0 - ∞ (AUC0-∞) [10, 15]: 9633.18 ± 382.98^a ^* ng/ml | Elimination of Half-life time (t1/2) [10, 15]: 2.68 ± 0.29^a h | Elimination rate constant (ke) [10, 15]: 0.260 ± 0.143^a h-1 | Peak Plasma Concentration (Cmax) [10, 15]: 1591.89 ± 43.97^a ng/ml | Time of clearance (Cl-T) [10, 15]: 0.078 ± 0.003^a I/h | Time to achieve plasma peak (Tmax) [10, 15]: 4.00^a h | Area Under the Curve-t0 - t8 (AUC0-8) [10, 16]: 7450 ng·h/mL | Area Under the Curve-t0 - ∞ (AUC0-∞) [10, 16]: 9630 ng·h/mL | Peak Plasma Concentration (Cmax) [10, 16]: 1592 ng/mL | Total tocols (sum of 0-8 h) ([10]; single dose 750 mg δ-tocotrienol): 4045 ng/mL
